Results: patent publication US20110105349A1, “USE OF A MONOPHOSPHATE ESTER OF A PHTHALEIN COMPOUND AS A SUBSTRATE FOR TARTRATE-RESISTANT ACID PHOSPHATASE B5 (TRAP 5B)” (MUNODIAGNOSTIC SYSTEMS LIMITED, priority 2008, published 2011)
Values joined by “and” are separate entries in the source; they are usually repeats but may differ in a detail not shown here. Equal entries are not always repeated. “Also recorded” adds a separate entry of the source.

Tests used:
TRAP5b [1] = assay: Time course of substrate hydrolysis on O1A-coated plates (Example 1, FIG. 1); assay type: biochemical, human; conditions: for specific activity of TRAP5b relative to that of TRAP5a: pH 7.0, from FIG. 1; for hydrolysis of substrate by TRAP5b: serum-derived TRAP5b, neutral pH (7.0) in Example 1
Experimental: (§1) Microtitre plates (Nunc Maxisorp) were coated with mouse anti-TRAP5 (clone O1A), from a solution of a 3.0 mg/L purified Mab IgG in 10 mM phosphate buffered saline (PBS), 100 μL per well and incubated overnight at room temperature. The coated plates were washed three times with 10 mM phosphate buffered saline, 0.05% Tween 20. A stabilising reagent of 5% lactose, 0.5% BSA was added, 250 μL per well, incubated for at least 10 minutes, then the liquid aspirated. The coated plates were dried overnight at 35° C. then stored at 2-8° C. protected from moisture.
(§2) Serum-derived TRAP5a and TRAP5b were separated by ion exchange chromatography using a modification of the procedure described by Lam et al, Clin. Chem. 24(7):1105-1108, 1978. 100-500 mL human serum was adjusted to around pH 5.0 with 100% acetic acid, and optionally diluted with an equal volume of 10 mM sodium phosphate buffer, pH 4.9. After clarification by centrifugation and filtering, the acidified serum was applied to a 1 cm×100-150 cm column of CM-Sepharose (Sigma, part No CCF 100) and the column was developed with a linear NaCl gradient, from 150-800 mM. Fractions containing TRAP5a and TRAP5b activity were identified using a non-capture assay essentially as described by Lam et al Clin. Chem. 24(7):1105-1108, 1978. In some instances the fractions were further assayed for TRAP5 by the immunoassays described below. Fractions containing peak levels of TRAP5a or TRAP5b were separately pooled for further analysis.
(§3) The TRAP5 protein concentration in the TRAP5a and TRAP5b preparations was determined by a sandwich immunoassay. 100-200 μL sample per well was applied to O1A-coated microtitre plates and incubated overnight at 4° C. The plate was washed three times with 10 mM phosphate buffered saline, 0.05% Tween 20, and 100-200 μL of a solution containing the rabbit anti-TRAP5 antibody at a dilution of 1:4000 was added per well. […] The reactions were stopped by the addition of 100 μL 0.5M HCl and the absorbance at 450 nm was measured. TRAP5 protein concentrations were calculated by reference to a calibration curve prepared from baculovirus-derived recombinant human TRAP5.
(§4) To test for activity towards PTMP, 100 μL of a solution containing 6 mg/mL PTMP dissolved in 125 mM MOPS buffer, pH 7.0 was added per well and incubated for 0-40 min at 37° C. The reactions were stopped at the times indicated by the addition of 50 μL per well of 1M glycine/NaOH, pH11 and the absorbance at […] was measured. […] The reactions were stopped at the times indicated by the addition of 50 μL per well of 0.25 M NaOH and the absorbance at […] was measured.

TRAP5a [2] = biological target: T1, TRAP5a (Homo sapiens, UniProt P13686); assay: Assay of CM-Sepharose fractions of normal human serum with pNPP- and PTMP-based assays (Example 4, FIG. 3); assay type: biochemical
T1 construct: Serum-derived TRAP5a and TRAP5b were separated by ion exchange chromatography; from tissue; host or cells: human serum
T1 sequence (P13686 22-325): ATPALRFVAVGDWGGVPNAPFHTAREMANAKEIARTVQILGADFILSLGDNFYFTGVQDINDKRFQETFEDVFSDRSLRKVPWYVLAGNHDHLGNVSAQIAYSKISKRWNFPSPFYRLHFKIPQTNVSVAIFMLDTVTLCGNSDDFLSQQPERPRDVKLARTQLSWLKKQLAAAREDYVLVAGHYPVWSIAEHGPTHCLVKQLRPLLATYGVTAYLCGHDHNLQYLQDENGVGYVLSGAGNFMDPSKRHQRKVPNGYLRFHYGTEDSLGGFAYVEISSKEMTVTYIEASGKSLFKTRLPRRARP
Description: TRAP5a and TRAP5b from normal human serum were separated on a CM-Sepharose column and the fractions assessed for TRAP5b using the pNPP and PTMP-based assays described in Example 3.

TRAP5a [3] = biological target: T1, TRAP5a; assay: TRAP5 capture immunoassay, specific activity with each substrate (Example 3); assay type: biochemical; conditions: for TRAP5 Specific Activity 5A: serum-derived TRAP5a, pNPP at pH 6.1, PTMP and TTMP at pH 7.0
Experimental: as §1, §2, §3, §4
TRAP5a and TRAP5b preparations were prepared and quantified with respect to TRAP5 mass as described in Example 3. […]

TRAP5b [4] = assay: Activity with phthalein monophosphate esters at 0.47 mg/mL, pH 7.4 (Example 8); assay type: biochemical, human; design: 5b Activity: unit not given here; conditions: 0.47 mg/mL in 100 mM MES pH7.4
Experimental: (§5) To test for activity towards PTMP, 100 μL of a solution containing 6 mg/mL PTMP dissolved in 125 mM MOPS buffer, pH 7.0 was added per well and incubated for 0-40 min at 37° C. The reactions were stopped at the times indicated by the addition of 50 μL per well of 1M glycine/NaOH, pH11 and the absorbance at […] was measured. To test for activity towards TTMP, 100 μL of a solution containing 5 mg/mL TTMP dissolved in 80 mM MOPS buffer, 10% ethanol, pH 7.0 was added per well and incubated for 0-40 min at 37° C. The reactions were stopped at the times indicated by the addition of 50 μL per well of 0.25 M NaOH and the absorbance at […] was measured.
(§6) Where phthalein monophosphate esters were not available commercially, the monophosphate esters were prepared by the method of Bulbenko & Woodbridge (U.S. Pat. No. 4,045,290) by reaction of the appropriate phthalein compound (from Sigma-Aldrich) with phosphorus oxychloride (CAS 10025-87-3), followed by hydrolysis and purification. The monophosphate esters were further purified before use by HPLC chromatography to remove un-reacted phthalein dye. HPLC column 10 mm×150 mm ACE 5 C18 (Advance Chromatography Technologies, UK), load solvent composition, 30% methanol and 70% water containing 0.1% trifluoroacetic acid (TFA); product was eluted by a gradient from 30% methanol 0.1% TFA to 100% methanol 0.1% TFA at 3 mL/minute over 45 minutes.
(§7) Phthalein monophosphate esters prepared in Example 7 were diluted to 0.47 mg/mL in 100 mM MES pH7.4 buffer and applied to an assay as in Example 1.

TRAP5a [5] = biological target: T1, TRAP5a; assay: Time course of substrate hydrolysis on O1A-coated plates (Example 1, FIG. 1); assay type: biochemical; conditions: serum-derived TRAP5a; neutral pH (7.0) in Example 1
Experimental: as §1, with “moisture. […]” for “moisture.”
The TRAP5 protein concentration in the TRAP5a and TRAP5b preparations was determined by a sandwich immunoassay. […] The reactions were stopped by the addition of 100 μL 0.5M HCl and the absorbance at 450 nm was measured. TRAP5 protein concentrations were calculated by reference to a calibration curve prepared from baculovirus-derived recombinant human TRAP5.
as §4

TRAP5a [6] = biological target: T1, TRAP5a; assay: Activity with phthalein monophosphate esters at 0.47 mg/mL, pH 7.4 (Example 8); assay type: biochemical; design: unit not given beside the values; conditions: 0.47 mg/mL in 100 mM MES pH7.4
Experimental: as §5, §6, §7

TRAP5b [7] = assay: pH vs activity profile (Example 2, FIG. 2); assay type: biochemical, human; conditions: substrate 6 mg/mL in MES or MOPS buffers
Experimental: (§8) Since TRAP5 is an acid phosphatase that normally is only active under acidic conditions, the relationship between TRAP5a and TRAP5b enzyme activity and substrate pH using PTMP as substrate over a range of pH values was investigated. The TRAP5 assays were performed essentially as described for Example 1, except that the PTMP substrate was dissolved at 6 mg/mL in a series of 100 mM MES or 100 mM MOPS buffers to give the pH values indicated.

TRAP5a [8] = biological target: T1, TRAP5a; assay: pH vs activity profile (Example 2, FIG. 2); assay type: biochemical; conditions: substrate 6 mg/mL in MES or MOPS buffers
Experimental: as §8

TRAP5b [9] = assay: TRAP5 capture immunoassay, specific activity with each substrate (Example 3); assay type: biochemical, human; conditions: for Ratio 5B:5A of specific activity / TRAP5 Specific Activity 5B: pNPP at pH 6.1, PTMP and TTMP at pH 7.0; for specificity for TRAP5b over TRAP5a compared with the commercial pNPP based assay: relative to pNPP-based assay; for TRAP5 Specific Activity 5B: serum-derived TRAP5b
Experimental: as §1, §2
The TRAP5 protein concentration in the TRAP5a and TRAP5b preparations was determined by a sandwich immunoassay. 100-200 μL sample per well was applied to O1A-coated microtitre plates and incubated overnight at 4° C. The plate was washed three times with 10 mM phosphate buffered saline, 0.05% Tween 20, and 100-200 μL of a solution containing the rabbit anti-TRAP5 antibody at a dilution of 1:4000 was added per well. After 60 min incubation at ambient temperature the plate was washed as above and 100-200 μL of a solution containing anti-rabbit IgG-Horseradish peroxidase conjugate at a dilution of 1:5000 was added and incubated for 30 min at ambient temperature. After further washing as described above […] of TMB (BioFx Inc, part TMBW-0100-01) was added and incubated for 30 min at ambient temperature. The reactions were stopped by the addition of 100 μL 0.5M HCl and the absorbance at 450 nm was measured. TRAP5 protein concentrations were calculated by reference to a calibration curve prepared from baculovirus-derived recombinant human TRAP5.
as §5
TRAP5a and TRAP5b preparations were prepared and quantified with respect to TRAP5 mass as described in Example 3. A set of TRAP5 calibrators was prepared by incubating 225 μg baculovirus-derived recombinant human TRAP with 12 U chymotrypsin for 6 h at ambient temperature, preparing a series of dilutions from this material and assigning TRAP5 concentrations (in U/L) to these dilutions using the commercial TRAP5b immunoassay based on WO1999/050662. The TRAP5a and TRAP5b preparations were assayed by a commercial TRAP5b immunoassay based on WO1999/050662 which uses pNPP as substrate at pH 6.1 with the modification that the chymotrypsin-treated calibrators described above were substituted for those provided by the manufacturer. […]

TRAP5b [10] = conditions: cited from earlier work; for pH optimum of TRAP5b: WO1999/050662 (pNPP), EP1598670 (2-chloro-4-nitrophenylphosphate)

SMILES | TRAP5 Specific Activity 5A (TRAP5a [3]) [U/μg] | 5b Activity (TRAP5b [4]) | Ratio of 5b:5a activity (TRAP5b [4]) | 5a Activity (TRAP5a [6]) | Ratio 5B:5A of specific activity (TRAP5b [9]) | TRAP5 Specific Activity 5B (TRAP5b [9]) [U/μg] | further results
O=C1OC(c2ccc(O)cc2)(c2ccc(OP(=O)(O)O)cc2)c2ccccc21 (stereo not shown) [PTMP, Phenolphthalein monophosphate] | 0.035 | 0.3664 | 33.3 | 0.0110 | 47.5 | 1.68 | specific activity of TRAP5b relative to that of TRAP5a (TRAP5b [1]): approximately 50 times; hydrolysis of substrate by TRAP5b (TRAP5b [1]): readily hydrolyze; also recorded: hydrolised; TRAP5a detected, as share of the TRAP5a detected by the pNPP-based assay (TRAP5a [2]; peak TRAP5a fraction 53): 16%; TRAP5a detected, as share of the TRAP5a detected by the pNPP-based assay (TRAP5a [3]; from specific activities, PTMP pH 7.0 vs pNPP pH 6.1): 20%; hydrolysis of substrate by TRAP5a (TRAP5a [5]): readily hydrolyze; also recorded: hydrolised; pH of maximal activity (pH optimum) of TRAP5b (TRAP5b [7]): 7.0 pH; pH of maximal activity (pH optimum) of TRAP5a (TRAP5a [8]): ~6.0 pH; specificity for TRAP5b over TRAP5a compared with the commercial pNPP based assay (TRAP5b [9]): ~4.75 fold
Cc1cc(C2(c3cc(C)c(OP(=O)(O)O)c(Br)c3)OS(=O)(=O)c3ccccc32)cc(Br)c1O (stereo not shown) [Bromocresol Purple, Bromocresol Purple monophosphate] | – | 0.4755 | 64.3 | 0.0074 | – | – | –
O=P(O)(O)Oc1ccc(C2(c3ccc(O)c(Cl)c3)OS(=O)(=O)c3ccccc32)cc1Cl (stereo not shown) [Chlorophenol Red, Chlorophenol Red monophosphate] | – | 0.3558 | 53.1 | 0.0067 | – | – | –
Cc1c(C2(c3cc(Br)c(OP(=O)(O)O)c(Br)c3C)OS(=O)(=O)c3ccccc32)cc(Br)c(O)c1Br (stereo not shown) [Bromocresol Green, Bromocresol Green monophosphate] | – | 0.2636 | 73.2 | 0.0036 | – | – | –
O=[N+]([O-])c1ccc(OP(=O)(O)O)c(Cl)c1 [2-chloro-4-nitrophenylphosphate] | – | – | – | – | – | – | relative activity for TRAP 5b over TRAP 5a compared with WO1999/050662 (TRAP5b [10]; EP 1598670): 0.8 ×; pH optimum of TRAP5b (TRAP5b [10]): 6.4 pH
O=[N+]([O-])c1ccc(OP(=O)(O)O)cc1 [pNPP, p-nitrophenyl phosphate, reference compound] | 0.177 | – | – | – | 9 and 9.04 | 1.60 | pH optimum of TRAP5b (TRAP5b [10]): ~5.9 pH; share of the material measured as TRAP5b that is actually TRAP5a (TRAP5a [2]; normal human serum, CM-Sepharose fractions): around 40%
O=P(O)(O)Oc1ccc(C2(c3ccc(O)cc3)OS(=O)(=O)c3ccccc32)cc1 (stereo not shown) [Phenol Red, Phenol Red monophosphate] | – | 0.3558 | 53.1 | 0.0067 | – | – | –
Cc1cc(O)c(C(C)C)cc1C1(c2cc(C(C)C)c(OP(=O)(O)O)cc2C)OC(=O)c2ccccc21 (stereo not shown) [TTMP, Thymolphthalein monophosphate] | 0.035 | – | – | – | 65.3 | 2.3 | specific activity of TRAP5b relative to that of TRAP5a (TRAP5b [1]): approximately 70 times; hydrolysis of substrate by TRAP5b (TRAP5b [1]): readily hydrolyze; also recorded: hydrolised; hydrolysis of substrate by TRAP5a (TRAP5a [5]): readily hydrolyze; also recorded: hydrolised; specificity for TRAP5b over TRAP5a compared with the commercial pNPP based assay (TRAP5b [9]): ~6.5 fold
